# Data as given in publication PMC10299677, “Fluorinated Benzofuran and Dihydrobenzofuran as Anti-Inflammatory and Potential Anticancer Agents” (International Journal of Molecular Sciences, 2023).
# How the values were obtained:
# COX-2 protein expression = COX-2 protein expression in LPS-treated macrophages (Western blot); assay type: cell-based, C57BL/6J mice; settings: 10 µM for compounds 1, 7, 9, 50 µM for others, LPS 24 h
# Protocol: Figure 4 Effects of the fluorinated benzofuran and dihydrobenzofuran on COX-2 and NOS2 protein expressions. COX-2 and NOS2 protein expressions were assessed in macrophages incubated with only 10 µM for compounds 1, 7, and 9, and 50 µM for the other compounds, for 30 min prior to the addition of 10 ng/mL LPS for 24 h. β-actin was used as a loading control, and densitometric analysis was performed using ImageJ software (NIH, MA). Data are expressed as fold of LPS-treated macrophages and represented as mean ± SEM of 4 different experiments; * p < 0.05 versus LPS (one-way ANOVA followed by Dunnett’s test).
# Macrophages were incubated with the compounds for 30 min prior to the addition of 10 ng/mL LPS for 24 h. Protein levels for COX-2 and NOS2 were detected in LPS-stimulated macrophages. As previously described, 10 µg of total protein was assessed. The primary antibodies were developed and characterized as previously described: for COX-2, mouse monoclonal antibody anti-COX-2 (clone COX-214, 1/5000); for NOS2, rabbit polyclonal antibody anti-NOS2 (dilution1/2000 [33]). Antibodies anti-phospho-NF-κB (3033S), phospho-IκBα (9246S), and total IκBα (4814S) were from Cell Signaling Technologies (Danvers, MA, USA). Total NF-κB C-20 (sc-372) was from Santa Cruz Biotechnologies (Dallas, TX, USA), and mouse β-actin (dilution 1/10,000) (Sigma-Aldrich, A5441). Clarity™ western ECL substrate (Bio-Rad Laboratories 10-5061) was used according to the manufacturer’s instructions to reveal positive bands visualized using Bio-Rad ChemiDoc. For Bcl-2 and cleaved PARP-1, HCT116 cells were plated in 6-well plates (200,000 cells per well) for 24 h, and treated with compounds 1 and 2 at 10, 25, and 50 µM for 72 h. Supernatants and cells were collected and lysed using RIPA lysis buffer containing inhibitors of protease. Western blot of Bcl-2 and cleaved PARP-1 was performed using 25 µg of total protein with a rabbit polyclonal antibody anti-Bcl-2 (1/500) (Santa Cruz Biotechnology, sc-492), rabbit polyclonal antibody anti-PARP-1 (1/1000) (Santa Cruz Biotechnology, sc-7150), and mouse anti-β-actin (dilution 1/10,000) (Sigma-Aldrich, A5441).
# Densitometric analyses were performed using ImageJ software (NIH, MA, USA). The ratio of the different analyzed bands to β-actin was determined and data are represented as fold change compared to the LPS-treated cells. Percentage of viable cells for proliferation assay was determined as percentage to control (non-treated cells). For TUNEL assay, apoptotic cells were quantified, and results were expressed as percentage to positive cells (cleaved DNA) compared to control (non-treated cells). Statistical analysis was performed using one-way ANOVA, followed by Dunnett’s multiple comparisons test using GraphPad Prism software. Differences were considered significant when p < 0.05.
# IL-6 mRNA = assay: LPS-dependent IL-6 mRNA in THP-1-derived macrophages (RT-PCR); assay type: cell-based, human; settings: 50 µM, 10 ng/ml LPS 6 h
# Protocol: F i g u re S3: Eff ect of benzofuran compounds on the lev els of LP S -dependent mRNA of CCL2 and IL-6 in THP-1 –deriv ed macrophages. Human-monoc yti c cell l ine-THP-1 wer e treat ed with PMA (25 nM for 48 hours) th en in cub ated with 50 μM compounds for 30 minutes b efo re the addit ion of 10 ng/ml LP S fo r 6 hours. Gene ex pression of IL6 and CCL2 were measur ed by RT-PCR and the v alu es wer e nor mal ized to GAPDH. Results represent means ± SEM by one way ANOVA followed by Dunnett test.
# PGE2 = PGE2 release in LPS-treated macrophages (BMDM); assay type: cell-based, C57BL/6J mice; settings: 10 µM for compounds 1, 7, 9, 50 µM for others, 10 ng/mL LPS 24 h
# Protocol: C57BL/6J (10–15 weeks old) male mice were obtained from the animal care facility at the American University of Beirut. All animal procedures were performed following the recommendations of the IACUC (Institutional Animal Care and Use Committee approval 16-09-M379). BMDMs were prepared and characterized as described previously by our group. BMDMs were isolated from C57BL/6J mice by flushing the femur and tibia with RPMI-1640 culture media (Sigma-Aldrich R7388), and cells were collected and centrifuged at 300× g for 5 min. The supernatant was discarded, and the pellet was resuspended in 2 mL red blood lysis 10% (Sigma-Aldrich R7767) medium in PBS and incubated for 5 min at room temperature. After diluting the suspension of cells with 5 mL of RPMI containing 10% FBS and 1% penicillin–streptomycin, cells were centrifuged at 300× g for 5 min, and the cell pellet was resuspended in RPMI media containing 10% FBS supplemented with 15% L929-conditioned medium containing macrophage-colony stimulating factor (M-CSF1) and plated on […]. Cells were allowed to proliferate and differentiate for 5–6 days. Cells were harvested, washed, and allowed to adhere overnight in RPMI containing 10% FBS for treatment. Cells were previously characterized by flow cytometry as macrophages using this method. […] Cells were plated at 0.8 × 10^6 cells per 3.8 cm^2 well [27].
# BMDMs were then treated with different concentrations of the benzofuran and dihydrobenzofuran derivatives for 30 min prior to the addition of 10 ng/mL LPS for 24 h. […] The supernatants were assessed for IL-6, PGE2, CCL2, and nitrite, the stable derivative of NO, as described previously.
# (§1) IL-6, CCL2, nitrite (for NO), and PGE2 concentrations from 3–5 independent experiments were expressed as percentage of LPS alone and as mean ± SEM. COX activity was determined as percentage of PGE2 produced from exogenous arachidonic acid. Curve fitting and calculation of IC50 values were performed using GraphPad Prism (version 9.5.1 Software, La Jolla, CA, USA).
# [1] = Toxicity on macrophages (BMDM), WST-1 assay; assay type: cell-based, C57BL/6J mice; settings: C57BL/6J, mouse, bone marrow-derived macrophages (BMDM), read-out: macrophage viability
# Protocol: WST-1 assay (Sigma-Aldrich, 5015944001) was used to determine the toxicity of the synthesized compounds on BMDM and HCT116 (ATCC, CCL-247), kindly provided by Dr. Nadine Darwiche, Department of Biochemistry and Molecular Genetics, American University of Beirut, Lebanon. Briefly, macrophages (50,000 cells per well) and HCT116 (20,000 cells per well) were plated in a 96-well plate in RPMI 1640 culture medium containing 10% fetal bovine serum (FBS) and grown for 24 h. Cells (in triplicates) were treated with 10 or 50 μM of the compounds for macrophages, and 50 or 100 μM for HCT116. Culture medium without cells and cells without treatment were used as basal and maximal activity, respectively. Results were expressed as percentage of cells without treatment.
# F i g u re S1: E ff e c t of fluorin at ed benzofuran derivatives on m acrophages
# viabilit y. C ells in cub at ed with 10 and 50 μM of benzofuran d eri vativ es
# (compounds 1 to 9) bel onging to groups І, II, III and IV for 24 hours. Cell
# viabilit y w as det ermin ed by WST-1 assay. Non-t r eated m acrophages wer e used
# as cont rol. Results were shown as mean ± SEM (n=3) . *p< 0.05 comp ar ed to the
# vehicle –treated cells (basal), one-way ANOVA followed by Dunnett’s test.
# (1 picture or pasted object on this page, not shown here)
# COX-1 = target: T1, COX-1 (Homo sapiens, UniProt P23219); assay: COX-1 activity: PGE2 from exogenous arachidonic acid in HEK-293 cells overexpressing COX-1; assay type: cell-based; settings: 10 µM for compounds 1, 7, 9, 50 µM for others; 10 µM arachidonic acid
# T1 construct: expressed in transfected cells
# T1 sequence (P23219 24-599): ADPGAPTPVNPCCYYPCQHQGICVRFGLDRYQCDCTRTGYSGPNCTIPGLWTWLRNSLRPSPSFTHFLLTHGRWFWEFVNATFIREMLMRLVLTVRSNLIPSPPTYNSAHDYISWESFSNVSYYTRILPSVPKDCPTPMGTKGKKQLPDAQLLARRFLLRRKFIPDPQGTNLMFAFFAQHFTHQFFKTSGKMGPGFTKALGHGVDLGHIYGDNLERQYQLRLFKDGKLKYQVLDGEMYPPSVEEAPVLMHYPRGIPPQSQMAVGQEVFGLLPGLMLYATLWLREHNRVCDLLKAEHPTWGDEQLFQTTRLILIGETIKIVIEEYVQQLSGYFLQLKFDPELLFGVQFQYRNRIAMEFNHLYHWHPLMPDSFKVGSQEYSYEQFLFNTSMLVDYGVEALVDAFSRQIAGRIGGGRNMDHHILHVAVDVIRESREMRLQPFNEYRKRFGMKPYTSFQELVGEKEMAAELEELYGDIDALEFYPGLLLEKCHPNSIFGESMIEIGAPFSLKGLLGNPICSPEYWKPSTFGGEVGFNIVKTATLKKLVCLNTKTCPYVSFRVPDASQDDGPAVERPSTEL
# Protocol: Figure 3 Effects of the fluorinated benzofuran and dihydrobenzofuran on COX-1 and COX-2 activities. (A) Illustration for COX-1 activity assay. HEK-293 cells stably overexpressing COX-1 are treated with the nine derivatives of benzofuran at concentrations of only 10 µM for compounds 1, 7, and 9, and 50 µM for the other compounds, 30 min prior to the addition of 10 µM arachidonic acid (AA). […] (B) COX-1 activity. […] Levels of PGE2 were very low in the absence of arachidonic acid (0.04 ± 0.01 ng/mL) and 104.3 ± 16.7 ng/mL for 10 µM AA. (C) Illustration for COX-2 activity determination. Macrophages are treated with 10 µM of aspirin (ASA) for 30 min to block basal COX activity, washed, and treated with 10 ng/mL LPS for 24 h to induce COX-2. Cells are then washed and incubated 30 min with 50 µM of the different compounds prior to the addition of 10 µM of AA. The produced PGE2 mainly reflects COX-2 activity. (D) COX-2 activity. Percentage of LPS-treated cells was calculated, and data are represented as mean ± SEM (n = 4); * p < 0.05 versus AA for COX-1 activity, and versus LPS + ASA + AA for COX-2 activity (one-way ANOVA followed by Dunnett’s test). […] Levels of PGE2 were very low in the absence of arachidonic acid (0.06 ± 0.01 ng/mL) and 71.7 ± 5.7 ng/mL for 10 µM AA.
# COX-1 and COX-2 activities were performed as described previously in human embryonic kidney cell line (HEK-293) stably overexpressing COX-1 [19] and in macrophages, respectively. […] For both COX-1 and COX-2 assays, the benzofuran compounds were then added to the cells for 30 min prior to the incubation with 10 µM arachidonic acid for another 30 min. PGE2 was then measured using an enzyme immunoassay, as described previously.
# as §1
effect on COX-1 activity (COX-1),Compound,effect on LPS-induced COX-2 protein expression (COX-2 protein expression),effect on IL-6 mRNA levels (IL-6 mRNA),effect on PGE2 production in response to LPS (PGE2),"viability at 24 h, 50 µM [1] [%]"
–,O=C(O)/C=C1/Oc2ccccc2C1(F)F [Compound 4],loss of this inhibitory effect,to a lesser extent,–,–
loss of the inhibitory activity,COC(=O)CC1(SCCO)Oc2ccc(Br)cc2C1(F)F (stereo not drawn) [Compound 7],–,–,loss of the inhibitory activity,50
–,COC(=O)C1CC(C)=C(C)CC12Oc1ccc(Br)cc1C2(F)F (stereo not drawn) [Compound 9],–,–,–,50
